Here are results for 2 molecules from ChEMBL document CHEMBL4387706, “Discovery of Novel Spiroindoline Derivatives as Selective Tankyrase Inhibitors” (J Med Chem, 2019).

In brackets after ≈: the same amount, converted by molar mass. Activity calls are given as the source filed them. The calls are words filed in the database; no cut-off is given here.

The target in data set [1] is T1, Poly [ADP-ribose] polymerase tankyrase-2 (Homo sapiens, UniProt Q9H2K2).
T1 sequence (Q9H2K2 whole entry): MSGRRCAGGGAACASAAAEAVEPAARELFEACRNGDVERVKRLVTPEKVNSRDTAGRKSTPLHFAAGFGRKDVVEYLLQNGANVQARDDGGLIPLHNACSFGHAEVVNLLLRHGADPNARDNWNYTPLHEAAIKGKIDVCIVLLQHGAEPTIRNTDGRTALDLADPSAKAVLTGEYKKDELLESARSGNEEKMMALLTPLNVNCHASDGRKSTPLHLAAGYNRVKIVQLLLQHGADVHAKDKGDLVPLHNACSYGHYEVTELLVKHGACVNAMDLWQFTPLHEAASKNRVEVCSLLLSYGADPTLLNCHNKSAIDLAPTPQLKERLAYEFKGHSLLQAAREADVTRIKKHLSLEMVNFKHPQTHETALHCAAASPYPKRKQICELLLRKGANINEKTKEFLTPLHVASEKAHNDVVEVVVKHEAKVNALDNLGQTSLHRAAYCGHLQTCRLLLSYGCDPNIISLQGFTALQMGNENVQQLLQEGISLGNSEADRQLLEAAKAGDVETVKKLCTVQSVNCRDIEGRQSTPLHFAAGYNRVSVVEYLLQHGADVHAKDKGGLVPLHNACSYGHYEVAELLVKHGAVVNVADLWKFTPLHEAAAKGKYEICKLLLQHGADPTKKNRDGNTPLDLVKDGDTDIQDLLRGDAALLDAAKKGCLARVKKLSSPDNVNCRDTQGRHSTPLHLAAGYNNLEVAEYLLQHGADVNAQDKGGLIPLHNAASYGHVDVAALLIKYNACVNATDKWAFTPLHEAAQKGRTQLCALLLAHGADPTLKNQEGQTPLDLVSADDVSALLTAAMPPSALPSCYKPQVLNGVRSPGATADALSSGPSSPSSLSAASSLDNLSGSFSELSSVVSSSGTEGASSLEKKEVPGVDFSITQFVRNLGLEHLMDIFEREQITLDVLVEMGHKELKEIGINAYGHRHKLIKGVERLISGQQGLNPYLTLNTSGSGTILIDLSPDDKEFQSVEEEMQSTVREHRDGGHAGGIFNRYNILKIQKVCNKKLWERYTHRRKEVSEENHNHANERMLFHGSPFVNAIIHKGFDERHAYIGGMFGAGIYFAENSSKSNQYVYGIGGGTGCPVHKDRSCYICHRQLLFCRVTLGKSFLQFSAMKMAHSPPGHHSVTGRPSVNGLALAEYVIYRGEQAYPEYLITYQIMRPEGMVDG
Description: Inhibition of recombinant human N-terminal TEV cleavage site-fused/FLAG-poly his-tagged TNKS2 SAM-PARP domain (613 to 1166 residues) expressed in Escherichia coli assessed as reduction in auto-PARylation preincubated for 10 mins followed by biotinylated-NAD+ addition and measured after 45 mins by ELISA

A short description of data set [2]: physchem. The note with it: phosphate buffer, pH 7.4.
Data set [3] deals with Prostaglandin G/H synthase 1 (Homo sapiens) (UniProt P23219). In words: Inhibition of human recombinant COX1 expressed in baculovirus infected Sf9 cells at 10 uM using arachidonic acid as substrate preincubated for 15 mins followed by substrate addition and measured after 3 mins by ampliflu red dye-based spectrofluorimetric method relative to control.
For data set [4], the target named is Tankyrase 1/2 (Homo sapiens) (UniProt Q9H2K2+O95271). In words: Inhibition of TNKS/TNKS2-mediated beta-catenin signaling in human COLO320DM cells assessed as down regulation of AXIN2 mRNA expression at 0.033 to 1 uM measured after 48 hrs by RT-PCR analysis. Format: cell-based.
Tankyrase 1/2 (Homo sapiens), sequence (O95271 whole entry, looked up, one chain of several): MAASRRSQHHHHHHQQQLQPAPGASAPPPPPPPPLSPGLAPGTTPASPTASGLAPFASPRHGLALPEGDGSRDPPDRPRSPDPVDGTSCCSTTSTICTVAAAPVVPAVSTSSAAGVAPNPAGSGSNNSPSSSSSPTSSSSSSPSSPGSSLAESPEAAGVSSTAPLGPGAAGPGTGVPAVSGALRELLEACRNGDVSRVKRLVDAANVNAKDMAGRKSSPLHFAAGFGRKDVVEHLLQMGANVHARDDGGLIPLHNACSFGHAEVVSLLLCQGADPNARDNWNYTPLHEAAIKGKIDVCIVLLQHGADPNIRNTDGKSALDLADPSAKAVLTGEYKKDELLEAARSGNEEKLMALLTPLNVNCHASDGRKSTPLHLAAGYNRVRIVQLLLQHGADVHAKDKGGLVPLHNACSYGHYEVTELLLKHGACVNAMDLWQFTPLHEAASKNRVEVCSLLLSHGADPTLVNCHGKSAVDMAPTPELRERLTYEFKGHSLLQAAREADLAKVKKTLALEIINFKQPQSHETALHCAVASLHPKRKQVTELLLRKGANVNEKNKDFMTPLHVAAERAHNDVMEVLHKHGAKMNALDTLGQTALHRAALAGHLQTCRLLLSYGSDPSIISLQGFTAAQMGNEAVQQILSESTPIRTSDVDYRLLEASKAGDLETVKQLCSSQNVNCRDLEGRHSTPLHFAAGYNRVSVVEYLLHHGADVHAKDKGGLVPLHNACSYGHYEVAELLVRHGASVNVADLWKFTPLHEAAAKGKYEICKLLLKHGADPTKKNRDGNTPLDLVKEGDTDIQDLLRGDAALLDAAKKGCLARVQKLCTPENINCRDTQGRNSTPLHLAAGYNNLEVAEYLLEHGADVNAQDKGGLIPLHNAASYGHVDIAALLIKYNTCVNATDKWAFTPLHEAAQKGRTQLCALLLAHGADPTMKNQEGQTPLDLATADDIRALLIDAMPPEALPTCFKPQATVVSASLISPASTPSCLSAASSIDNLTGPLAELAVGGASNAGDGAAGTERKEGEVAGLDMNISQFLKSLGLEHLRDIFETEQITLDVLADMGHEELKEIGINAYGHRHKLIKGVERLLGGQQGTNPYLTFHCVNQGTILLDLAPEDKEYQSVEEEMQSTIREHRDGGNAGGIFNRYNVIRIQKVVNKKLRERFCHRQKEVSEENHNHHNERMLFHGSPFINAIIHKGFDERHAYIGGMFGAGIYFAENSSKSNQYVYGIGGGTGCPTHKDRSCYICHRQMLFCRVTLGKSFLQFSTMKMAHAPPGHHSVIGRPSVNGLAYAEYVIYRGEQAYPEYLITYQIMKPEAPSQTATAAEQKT
Data set [5] concerns the target Acetylcholinesterase (Homo sapiens) (UniProt P22303). In words: Inhibition of human recombinant full-length ACES expressed in HEK293 cells at 10 uM using acetylthiocholine iodide as substrate preincubated for 15 mins followed by substrate addition and measured after 20 mins by DTNB reagent based spectrophotometric method relative to control.
The target of data set [6] is Beta-2 adrenergic receptor (Homo sapiens) (UniProt P07550). Put plainly: Displacement of [3H]CGP-12177 from full-length recombinant human beta2 receptor expressed in CHO cells co-expressing NBR1 at 10 uM measured after 120 mins by scintillation counting method relative to control. Type of data set: cell-based. On the technique in general: In a radioligand displacement assay an active substance lowers the binding of a labelled ligand.
Beta-2 adrenergic receptor (Homo sapiens), sequence (P07550 whole entry, looked up): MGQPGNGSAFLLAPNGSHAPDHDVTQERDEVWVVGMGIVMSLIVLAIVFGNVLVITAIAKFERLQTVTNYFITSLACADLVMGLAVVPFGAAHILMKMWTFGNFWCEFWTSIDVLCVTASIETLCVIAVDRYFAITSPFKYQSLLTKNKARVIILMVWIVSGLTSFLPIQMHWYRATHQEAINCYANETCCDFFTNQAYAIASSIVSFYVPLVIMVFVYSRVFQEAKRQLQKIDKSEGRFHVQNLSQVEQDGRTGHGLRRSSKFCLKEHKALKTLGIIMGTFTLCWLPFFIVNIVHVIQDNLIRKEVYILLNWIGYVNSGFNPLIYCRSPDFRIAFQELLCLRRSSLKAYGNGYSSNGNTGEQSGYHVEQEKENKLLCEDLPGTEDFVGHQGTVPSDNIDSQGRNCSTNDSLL

In data set [7] the target is hERG (KCNH2) (Homo sapiens, UniProt Q12809). Put plainly: Displacement of [3H]dofetilide from full-length recombinant human ERG receptor expressed in HEK293 cells at 10 uM measured after 60 mins by scintillation counting method relative to control. The note with it: HEK293 cells expressing recombinant human ERG, probe [3H]dofetilide. Type of data set: cell-based.
For data set [8], the target named is Endothelin-1 receptor (Homo sapiens) (UniProt P25101). Put plainly: Displacement of [125I]Endothelin1 from full-length recombinant human ETA receptor expressed in CHOK1 cells at 10 uM measured after 120 mins by scintillation counting method relative to control. Type of data set: cell-based.
The target of data set [9] is Cav1.2 (voltage-dependent L-type calcium channel subunit alpha-1C) (Rattus norvegicus, UniProt P22002). In words: Displacement of [3H]nitrendipine from Cav1.2 in Wistar rat cerebral cortex at 10 uM measured after 90 mins by scintillation counting method relative to control. The note with it: probe [3H]nitrendipine.
Cav1.2 (voltage-dependent L-type calcium channel subunit alpha-1C), sequence (P22002 whole entry): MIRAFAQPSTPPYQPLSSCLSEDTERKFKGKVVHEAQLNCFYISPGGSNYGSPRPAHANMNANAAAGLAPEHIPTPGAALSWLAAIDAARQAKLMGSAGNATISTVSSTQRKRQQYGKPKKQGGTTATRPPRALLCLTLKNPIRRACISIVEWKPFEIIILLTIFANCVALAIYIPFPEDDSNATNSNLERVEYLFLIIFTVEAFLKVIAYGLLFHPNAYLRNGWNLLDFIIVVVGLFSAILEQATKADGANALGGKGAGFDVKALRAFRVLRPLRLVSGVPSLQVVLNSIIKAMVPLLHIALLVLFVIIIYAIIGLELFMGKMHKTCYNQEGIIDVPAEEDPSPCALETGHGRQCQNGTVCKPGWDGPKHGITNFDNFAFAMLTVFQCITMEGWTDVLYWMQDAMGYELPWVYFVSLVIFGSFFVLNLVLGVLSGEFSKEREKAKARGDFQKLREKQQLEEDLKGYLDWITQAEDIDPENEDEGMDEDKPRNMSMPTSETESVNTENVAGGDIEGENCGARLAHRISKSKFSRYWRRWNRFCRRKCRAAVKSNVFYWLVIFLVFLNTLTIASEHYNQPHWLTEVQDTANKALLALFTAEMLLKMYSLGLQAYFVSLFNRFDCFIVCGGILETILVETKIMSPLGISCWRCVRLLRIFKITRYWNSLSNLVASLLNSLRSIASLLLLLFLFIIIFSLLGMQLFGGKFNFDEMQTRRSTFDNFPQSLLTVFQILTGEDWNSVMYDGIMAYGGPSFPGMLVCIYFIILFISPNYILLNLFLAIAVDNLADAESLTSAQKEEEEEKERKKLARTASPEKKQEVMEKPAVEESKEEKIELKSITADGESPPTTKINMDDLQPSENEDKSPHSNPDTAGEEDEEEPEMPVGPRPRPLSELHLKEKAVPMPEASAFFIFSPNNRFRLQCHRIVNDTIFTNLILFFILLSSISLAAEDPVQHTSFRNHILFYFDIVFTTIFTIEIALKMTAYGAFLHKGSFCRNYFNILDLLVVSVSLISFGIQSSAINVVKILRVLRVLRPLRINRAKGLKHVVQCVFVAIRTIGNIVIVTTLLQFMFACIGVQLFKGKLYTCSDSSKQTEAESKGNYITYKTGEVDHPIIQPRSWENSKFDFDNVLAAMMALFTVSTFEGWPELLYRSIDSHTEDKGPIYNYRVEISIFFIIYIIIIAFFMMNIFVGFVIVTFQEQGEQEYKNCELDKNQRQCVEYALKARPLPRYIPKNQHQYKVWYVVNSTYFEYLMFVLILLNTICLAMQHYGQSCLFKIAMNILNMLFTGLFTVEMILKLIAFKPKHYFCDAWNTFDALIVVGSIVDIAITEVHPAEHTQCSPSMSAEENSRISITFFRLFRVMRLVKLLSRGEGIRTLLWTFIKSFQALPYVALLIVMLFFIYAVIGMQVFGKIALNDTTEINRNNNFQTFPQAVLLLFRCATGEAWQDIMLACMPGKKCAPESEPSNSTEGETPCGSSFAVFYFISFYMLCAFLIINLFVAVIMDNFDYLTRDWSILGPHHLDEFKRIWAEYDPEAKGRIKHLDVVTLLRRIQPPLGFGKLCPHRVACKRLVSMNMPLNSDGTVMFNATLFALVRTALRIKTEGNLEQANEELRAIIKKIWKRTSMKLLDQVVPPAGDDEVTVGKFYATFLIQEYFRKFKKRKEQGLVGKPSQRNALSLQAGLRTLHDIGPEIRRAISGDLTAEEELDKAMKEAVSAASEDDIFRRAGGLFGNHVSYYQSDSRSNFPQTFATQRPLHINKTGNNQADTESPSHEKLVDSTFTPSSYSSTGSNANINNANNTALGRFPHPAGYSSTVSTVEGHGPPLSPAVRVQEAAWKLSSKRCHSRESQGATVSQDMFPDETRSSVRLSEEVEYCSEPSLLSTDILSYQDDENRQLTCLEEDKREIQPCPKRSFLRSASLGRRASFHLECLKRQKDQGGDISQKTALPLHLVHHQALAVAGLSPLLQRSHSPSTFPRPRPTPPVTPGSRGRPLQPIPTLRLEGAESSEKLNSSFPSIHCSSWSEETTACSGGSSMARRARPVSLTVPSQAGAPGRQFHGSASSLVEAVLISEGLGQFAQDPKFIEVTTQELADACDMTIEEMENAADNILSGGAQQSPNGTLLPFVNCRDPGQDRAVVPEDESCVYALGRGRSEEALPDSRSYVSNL
Data set [10] deals with 5-hydroxytryptamine receptor 2A (Homo sapiens) (UniProt P28223). In words: Displacement of [3H]ketanserin from full-length recombinant human 5HT2A receptor expressed in CHOK1 cells at 10 uM measured after 60 mins by scintillation counting method relative to control. Type of data set: cell-based.
The test system of data set [11] is COLO 320DM. Put plainly: Antitumor activity against human COLO320DM cells xenografted in mouse assessed as tumor growth inhibition at 300 mg/kg, ip administered twice daily for 11 days relative to control. The note with it: 264 h, read-out: TGI. Type of data set: functional.
For data set [12], the species on record is Homo sapiens. In words: Effect on hippo signaling protein in human COLO320DM cells assessed as change in CYR61 expression at 0.033 to 1 uM measured after 48 hrs by RT-PCR analysis. Type of data set: cell-based.
The subject of data set [13] is RKO. Put plainly: Antiproliferative activity against human RKO cells assessed reduction in cell viability at 0.3 uM measured after 5 days by MTT assay. Type of data set: functional, cell-based.
Data set [14] deals with D(2) dopamine receptor (Homo sapiens) (UniProt P14416). Put plainly: Displacement of [3H]spiperone from full-length recombinant human D2S receptor expressed in CHO cells at 10 uM measured after 120 mins by scintillation counting method relative to control. Type of data set: cell-based.
D(2) dopamine receptor (Homo sapiens), sequence (P14416 whole entry): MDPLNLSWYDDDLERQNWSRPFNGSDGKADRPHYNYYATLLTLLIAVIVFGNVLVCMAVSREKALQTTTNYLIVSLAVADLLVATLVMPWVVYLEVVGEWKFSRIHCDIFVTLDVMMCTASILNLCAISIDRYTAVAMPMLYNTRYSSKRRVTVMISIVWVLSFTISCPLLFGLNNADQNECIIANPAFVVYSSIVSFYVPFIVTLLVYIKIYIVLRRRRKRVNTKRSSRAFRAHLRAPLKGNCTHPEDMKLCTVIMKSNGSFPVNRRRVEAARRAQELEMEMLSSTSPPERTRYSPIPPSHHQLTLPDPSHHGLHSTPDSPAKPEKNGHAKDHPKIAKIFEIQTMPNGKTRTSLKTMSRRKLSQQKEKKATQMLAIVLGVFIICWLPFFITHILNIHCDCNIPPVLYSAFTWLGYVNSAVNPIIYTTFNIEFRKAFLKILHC
For data set [15], the system named is COLO 320DM. In words: Antitumor activity against human COLO320DM cells xenografted in mouse assessed as tumor growth inhibition at 150 mg/kg, ip administered twice daily for 11 days relative to control. The note with it: 264 h, read-out: TGI. Format: functional. (In general: A xenograft is tissue or cells of one species grown in another, often human tumour cells in immunodeficient mice.)

Data set [16] in a line: Toxicity in mouse xenografted with human COLO320DM cells assessed as body weight loss at 300 mg/kg, ip administered twice daily for 11 days. Format: organism-based. The note with it: in vivo, 264 h.
Data set [17] has as its target MAOA (Homo sapiens, UniProt P21397). Put plainly: Inhibition of full-length recombinant human MAOA expressed in insect cells at 10 uM using kynuramine as substrate preincubated for 15 mins followed by substrate addition and measured after 60 mins by spectrofluorimetric method relative to control. The note with it: probe kynuramine.
The target of data set [18] is Adenosine receptor A2a (Homo sapiens) (UniProt P29274). In words: Displacement of [3H]CGS-21680 from full-length recombinant human A2A receptor expressed in HEK293 cells at 10 uM measured after 90 mins by scintillation counting method relative to control. Type of data set: cell-based.

MAOA, sequence (P21397 whole entry): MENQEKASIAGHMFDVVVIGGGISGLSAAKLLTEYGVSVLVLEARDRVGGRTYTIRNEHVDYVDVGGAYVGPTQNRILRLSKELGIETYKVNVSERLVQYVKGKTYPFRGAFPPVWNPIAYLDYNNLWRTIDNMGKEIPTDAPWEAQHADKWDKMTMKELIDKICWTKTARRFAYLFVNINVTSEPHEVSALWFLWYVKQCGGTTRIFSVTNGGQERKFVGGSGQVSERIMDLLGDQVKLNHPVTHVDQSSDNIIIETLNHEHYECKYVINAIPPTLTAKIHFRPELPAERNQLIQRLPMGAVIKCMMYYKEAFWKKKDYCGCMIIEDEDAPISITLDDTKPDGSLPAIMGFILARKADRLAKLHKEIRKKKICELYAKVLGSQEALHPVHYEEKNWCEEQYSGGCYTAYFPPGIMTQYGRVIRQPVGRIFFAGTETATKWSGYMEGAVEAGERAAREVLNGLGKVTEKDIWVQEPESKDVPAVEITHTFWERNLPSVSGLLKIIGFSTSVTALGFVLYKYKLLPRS

The IC50 is the concentration that gives 50% inhibition. A high value points to lower potency. One may read the solubility as the dissolved amount per volume that the medium holds. Read a high solubility as much dissolved substance. In [1], `COc1ccccc1N1CCN(c2nc3c(c(=O)[nH]2)CCCC3)CC1` returned an IC50 of 0.0194 µM. Also, the solubility at 1 h, 200 µM in data set [2] was 10 µg/mL (≈ 29.4 µM).
In general, inhibition refers to the change of the read-out against control, counted positive when it falls. Turning to `O=c1[nH]c(N2CCC3(CC2)CN(CCO)c2cc(F)cc(F)c23)nc2c1CCCC2`, the inhibition in [3], in data set [5], in [6], in data set [8], in data set [10] and in data set [14] was above 20% throughout. In addition, in data set [18], the inhibition is above 20%. Also, in data set [4], the inhibition entry was “Active”. Besides, the inhibition at 1 h, 10 µM in data set [7] and in [17] was above 20% each time. Further, in [9], the inhibition at 1.5 h, 10 µM is above 20%. Besides, the inhibition in vivo at 300 mg/kg in [11] came to 51.9%. For the same molecule, the outcome in data set [12] was inactive. Also, in [13], the result was Active. The inhibition in vivo at 150 mg/kg in data set [15] turned out to be 47.2%. Also, the Activity entry in [16] is listed as “Toxic”.
